Assay type in all cases: cell-based
One assay relates to Angioendothelial cells. As to the kind of experiment: Nitric oxide production in cultured angioendothelial cells (Griess method). Particulars: for Formed amount of nitric oxide: 24 hours after addition, L-Arg, L-PCA, GA concentrations (mM) in the medium differ per Example as in Table 1, medium without L-arginine. As to the method:
Angioendothelial cells were cultured using a DMEM medium (Dulbecco-modified MEM) containing 10% fetal bovine serum (FBS). However, phenol red and L-arginine were not added to the medium. The cells were cultured in the medium for 24 hours. After 24 hours of the culture, L-2-pyrrolidone-5-carboxylic acid and L-arginine were added to the medium, the amounts to be added being different for each Example and Comparative Example, as shown in Table 1 below. The culture was further continued for 24 hours.
Thereafter, the produced amount of the nitric oxide was determined by measuring the nitrogen dioxide in the culture supernatant. Nitrogen dioxide was measured by Griess method. The number of the cells in the culture liquid were measured and the formed amount of the nitric oxide per 10^3 cells was expressed in terms of nmol. By the way, as negative controls, the example wherein neither arginine nor pyrrolidonecarboxylic acid was contained (Comparative Example 1) and the example wherein arginine was contained singly (Comparative Example 2) were used. Moreover, as a positive control, the example wherein arginine and glycolic acid were contained (Comparative Example 3) was used.

For another assay, the system named is cNOS. Kind of assay: RT-PCR of cNOS messenger RNA in angioendothelial cells. Particulars: 24 hours; for Expressed amount of cNOS (Relative ratio): messenger RNA by RT-PCR. As to the method: (§1) Angioendothelial cells were cultured using a DMEM medium (Dulbecco-modified MEM) containing 10% fetal bovine serum (FBS). The cells were cultured in the medium for 24 hours. After 24 hours of the culture, the cells were further cultured in the medium to which L-pyrrolidonecarboxylic acid was added so as to achieve a predetermined concentration (See Table 3 given later) for 24 hours, and then the RNA was extracted. For reverse transcription of the RNA, a kit for reverse transcription (manufactured by GIBCO) was used to prepare the cDNA. The cDNA was then subjected to PCR (RT-PCR). Forty cycles of the PCR were carried out under the conditions of denaturing at 95° C. for 30 seconds, annealing at 59° C. for 60 seconds, and extension at 73° C. for 90 seconds.
(§2) As has been described above, using RT-PCR, the expressed amounts of the messenger RNA's of cNOS and iNOS were determined. In this experiment, cNOS was detected, but iNOS was not detected. […] In the table, L-PCA means L-pyrrolidonecarboxylic acid.

The test system of a further assay is iNOS. As to the kind of experiment: RT-PCR of iNOS messenger RNA in angioendothelial cells. Particulars: L-PCA 1.0-10.0 mM, 24 hours, RT-PCR 40 cycles. As to the method: as §1, §2

Data on three molecules can be found in patent US20040248967A1, “Promoter for production of nitric oxide or nitric oxide synthase, and cosmetic or pharmaceutical composition comprising the same” (AJINOMOTO CO., INC., priority 2001, published 2004).

Take `N=C(N)NCCC[C@H](N)C(=O)O` [Comparative Example 2, L-arginine, reference compound]: the “Formed amount of nitric oxide” value with Angioendothelial cells is recorded as 1.9 nmol/10^3 cells.
Still for that read-out and setting: the same measure for `O=C1CC[C@@H](C(=O)O)N1` [Example 1, L-2-pyrrolidone-5-carboxylic acid]: 1.4 nmol/10^3 cells.
As to `O=C1CC[C@@H](C(=O)O)N1` [L-PCA, L-2-pyrrolidone-5-carboxylic acid], the “amount of cNOS depending on the amount of pyrrolidonecarboxylic acid added (in words)” value with cNOS (1.0-10.0 mM, RT-PCR) is “tended to increase”. For the same molecule, the “Expressed amount of cNOS (Relative ratio)” value stood at 1.00 with cNOS (L-PCA added 1.0 mM), 1.25 with cNOS (L-PCA added 2.5 mM), 1.40 in the assay on cNOS (L-PCA added 5.0 mM) and 1.75 in the assay with cNOS (L-PCA added 10.0 mM). Moreover, the “promoting effect on the production of nitric oxide (in words)” value with Angioendothelial cells (angioendothelial cells, 24 hours, comparison at 10 mM of added compound) is listed as “exhibited a promoting effect on the production of nitric oxide”. In the assay with iNOS, the “expressed amount of messenger RNA of iNOS (detection)” value is listed as “not detected”.
